Reference: PubChem BioAssay (NCI)
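48-hour exposure; five concentrations; linearly interpolated endpoints. The concentration for 50% growth inhibition is given as GI50. TGI marks complete inhibition of growth.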

How the values were obtained:
Assay in all cases: NCI tumour cell line growth inhibition, 48 h
SK-MEL-5 melanoma = tested on: SK-MEL-5 melanoma
A549 NSCLC = tested on: A549 NSCLC
DU-145 prostate = tested on: DU-145 prostate
T-47D breast = tested on: T-47D breast
MOLT-4 leukemia = tested on: MOLT-4 leukemia
SK-MEL-28 melanoma = tested on: SK-MEL-28 melanoma
HOP-92 NSCLC = tested on: HOP-92 NSCLC
NCI-H226 lung = tested on: NCI-H226 lung
SF-295 CNS = tested on: SF-295 CNS
OVCAR-4 ovarian = tested on: OVCAR-4 ovarian
SW-620 colon = tested on: SW-620 colon
MCF7 breast = tested on: MCF7 breast
SNB-19 CNS = tested on: SNB-19 CNS
IGROV1 ovarian = tested on: IGROV1 ovarian
NCI-H460 lung = tested on: NCI-H460 lung
SF-539 CNS = tested on: SF-539 CNS
MALME-3M melanoma = tested on: MALME-3M melanoma
SF-268 CNS = tested on: SF-268 CNS
SNB-75 CNS = tested on: SNB-75 CNS
OVCAR-3 ovarian = tested on: OVCAR-3 ovarian
TK-10 renal = tested on: TK-10 renal
RPMI-8226 leukemia = tested on: RPMI-8226 leukemia
KM12 colon = tested on: KM12 colon
RXF 393 renal = tested on: RXF 393 renal
OVCAR-8 ovarian = tested on: OVCAR-8 ovarian
UO-31 renal = tested on: UO-31 renal
OVCAR-5 ovarian = tested on: OVCAR-5 ovarian
COLO 205 colon = tested on: COLO 205 colon
A498 renal = tested on: A498 renal
MDA-MB-435 = tested on: MDA-MB-435
K-562 leukemia = tested on: K-562 leukemia
EKVX NSCLC = tested on: EKVX NSCLC
LOX IMVI melanoma = tested on: LOX IMVI melanoma
SR leukemia = tested on: SR leukemia
HL-60(TB) leukemia = tested on: HL-60(TB) leukemia
CCRF-CEM leukemia = tested on: CCRF-CEM leukemia
HOP-62 NSCLC = tested on: HOP-62 NSCLC
UACC-62 melanoma = tested on: UACC-62 melanoma
SK-OV-3 ovarian = tested on: SK-OV-3 ovarian
SN12C renal = tested on: SN12C renal
NCI-H522 lung = tested on: NCI-H522 lung
HCT-15 colon = tested on: HCT-15 colon
ACHN renal = tested on: ACHN renal
NCI-H23 lung = tested on: NCI-H23 lung
HCC-2998 colon = tested on: HCC-2998 colon
MDA-MB-231 breast = tested on: MDA-MB-231 breast
CAKI-1 renal = tested on: CAKI-1 renal
U251 CNS = tested on: U251 CNS
HCT-116 colon = tested on: HCT-116 colon

## CCOC(=O)c1c(NC(=O)c2cccc(C(F)(F)F)c2)sc2c3c(ccc12)OCN(C)C3
SK-MEL-5 melanoma
  GI50: 1770 nM
  TGI: 3270 nM
A549 NSCLC
  GI50: 2070 nM
  TGI: 4900 nM
DU-145 prostate
  GI50: 1790 nM
  TGI: 3230 nM
T-47D breast
  GI50: 1940 nM
  TGI: 4570 nM
MOLT-4 leukemia
  GI50: 1860 nM
  TGI: 4540 nM
SK-MEL-28 melanoma
  GI50: 1710 nM
  TGI: 3140 nM
HOP-92 NSCLC
  GI50: 1400 nM
  TGI: 3050 nM
NCI-H226 lung
  GI50: 1780 nM
  TGI: 3780 nM
SF-295 CNS
  GI50: 1780 nM
  TGI: 3350 nM
OVCAR-4 ovarian
  GI50: 1790 nM
  TGI: 3610 nM
SW-620 colon
  GI50: 873 nM
  TGI: 2270 nM
MCF7 breast
  GI50: 1670 nM
  TGI: 3300 nM
SNB-19 CNS
  GI50: 1790 nM
  TGI: 3640 nM
IGROV1 ovarian
  GI50: 1690 nM
  TGI: 3500 nM
NCI-H460 lung
  GI50: 1640 nM
  TGI: 3280 nM
SF-539 CNS
  GI50: 1660 nM
  TGI: 3190 nM
MALME-3M melanoma
  GI50: 1980 nM
  TGI: 3740 nM
SF-268 CNS
  GI50: 1890 nM
  TGI: 3790 nM
SNB-75 CNS
  GI50: 1530 nM
  TGI: 3280 nM
OVCAR-3 ovarian
  GI50: 1700 nM
  TGI: 3210 nM
TK-10 renal
  GI50: 1910 nM
  TGI: 3810 nM
RPMI-8226 leukemia
  GI50: 1540 nM
  TGI: 4270 nM
KM12 colon
  GI50: 1680 nM
  TGI: 3190 nM
RXF 393 renal
  GI50: 1470 nM
  TGI: 3020 nM
OVCAR-8 ovarian
  GI50: 2260 nM
  TGI: 5240 nM
UO-31 renal
  GI50: 1530 nM
  TGI: 2940 nM
OVCAR-5 ovarian
  GI50: 1670 nM
  TGI: 3150 nM
COLO 205 colon
  GI50: 2210 nM
  TGI: 5080 nM
A498 renal
  GI50: 1630 nM
  TGI: 3070 nM
MDA-MB-435
  GI50: 1690 nM
  TGI: 3130 nM
K-562 leukemia
  GI50: 394 nM
  TGI: 1800 nM
EKVX NSCLC
  GI50: 1640 nM
  TGI: 3240 nM
LOX IMVI melanoma
  GI50: 1680 nM
  TGI: 3250 nM
SR leukemia
  GI50: 463 nM
  TGI: 4580 nM
HL-60(TB) leukemia
  GI50: 1540 nM
  TGI: 4290 nM
CCRF-CEM leukemia
  GI50: 1560 nM
  TGI: 4620 nM
HOP-62 NSCLC
  GI50: 2330 nM
  TGI: 6080 nM
UACC-62 melanoma
  GI50: 1680 nM
  TGI: 3170 nM
SK-OV-3 ovarian
  GI50: 2070 nM
  TGI: 4310 nM
SN12C renal
  GI50: 1800 nM
  TGI: 3530 nM
NCI-H522 lung
  GI50: 2220 nM
  TGI: 5550 nM
HCT-15 colon
  GI50: 1310 nM
  TGI: 2690 nM
ACHN renal
  GI50: 1760 nM
  TGI: 3270 nM
NCI-H23 lung
  GI50: 1890 nM
  TGI: 3840 nM
HCC-2998 colon
  GI50: 1520 nM
  TGI: 2980 nM
MDA-MB-231 breast
  GI50: 1700 nM
  TGI: 3330 nM
CAKI-1 renal
  GI50: 1570 nM
  TGI: 2990 nM
U251 CNS
  GI50: 1850 nM
  TGI: 3930 nM
HCT-116 colon
  GI50: 1950 nM
  TGI: 4740 nM
